Test results published in PubChem BioAssay (NCI).
“And” between values parts separate entries of the source, which are not always exact repeats. Identical values can stand only once.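 Grown in 96-well plates, cells were treated for 48 hours with each compound at five concentrations. Insufficient inhibition: endpoint recorded as highest concentration tested. Abbreviation: GI50, concentration required for 50% inhibition of growth. The concentration for full growth arrest is given as TGI.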

Columns and labels:
Experiment in all cases: NCI tumour cell line growth inhibition, 48 h
HCT-116 colon = test system: HCT-116 colon
HT29 colon = test system: HT29 colon
DU-145 prostate = test system: DU-145 prostate
HOP-92 NSCLC = test system: HOP-92 NSCLC
UACC-62 melanoma = test system: UACC-62 melanoma
U251 CNS = test system: U251 CNS
SK-MEL-5 melanoma = test system: SK-MEL-5 melanoma
K-562 leukemia = test system: K-562 leukemia
CCRF-CEM leukemia = test system: CCRF-CEM leukemia
EKVX NSCLC = test system: EKVX NSCLC

Row | Compound | GI50 (HCT-116 colon) | TGI (HCT-116 colon) | GI50 (HT29 colon) | TGI (HT29 colon) | GI50 (DU-145 prostate) | TGI (DU-145 prostate) | GI50 (HOP-92 NSCLC) | TGI (HOP-92 NSCLC) | GI50 (UACC-62 melanoma) | TGI (UACC-62 melanoma) | GI50 (U251 CNS) | TGI (U251 CNS) | GI50 (SK-MEL-5 melanoma) | TGI (SK-MEL-5 melanoma) | GI50 (K-562 leukemia) | TGI (K-562 leukemia) | GI50 (CCRF-CEM leukemia) | TGI (CCRF-CEM leukemia) | GI50 (EKVX NSCLC) | TGI (EKVX NSCLC)
1 | Nc1nc(-c2ccccc2)nc(N)c1N=O | 4.12 µM | 17.8 µM | 2.88 µM | 10.3 µM | 9.5 µM | 21.6 µM | 5.32 µM | 23.5 µM | 3.6 µM | 14 µM | 5.13 µM | 17.9 µM | 8.21 µM | 20.8 µM | 5.09 µM | 72.3 µM | 5.8 µM | > 100 µM | 20.1 µM | > 100 µM
2 | COc1ccc2c(c1)C(=O)c1c-2c(Nc2ccc(Cl)cc2)nc2ccccc12 | 5.03 µM | 24 µM | 27.5 µM | > 100 µM | 8.49 µM | 98.5 µM | 11.5 µM | 39.2 µM | 11.3 µM | 26 µM | 5.51 µM | 18.4 µM | 2.84 µM | 13.2 µM | 71.6 µM | > 100 µM | 32 µM | > 100 µM | 10.1 µM | 95.3 µM
3 | CC(=O)O[C@]1(C(C)=O)CC[C@H]2[C@@H]3C=C(C)C4=CC(=O)CC[C@]4(C)[C@H]3CC[C@@]21C | 28 µM | > 100 µM | > 100 µM | > 100 µM | > 100 µM | > 100 µM | 14.8 µM | > 100 µM | > 71.8 µM | > 100 µM | > 60.9 µM | > 100 µM | 56.3 µM | > 100 µM | 20.7 µM | > 100 µM | > 80.4 µM | > 100 µM | 21 µM | > 100 µM
4 | NC(=O)c1cc(-c2ccc(F)cc2)cc(-c2ccncc2)c1N | > 25 µM | > 25 µM | > 25 µM | > 25 µM | > 25 µM | > 25 µM | 23 µM | > 25 µM | > 25 µM | > 25 µM | > 25 µM | > 25 µM | > 20.2 µM | > 25 µM | > 25 µM | > 25 µM | > 25 µM | > 25 µM | > 25 µM | > 25 µM
5 | N#CSCC1CC(O)(c2ccccc2)CC(c2ccc(F)cc2)O1 (stereo not given) | 1.63 µM | 2.98 µM | 1.97 µM | 4.19 µM | 1.56 µM | 3.45 µM | 1.93 µM | 6.05 µM | 2.14 µM | 6.12 µM | 1.7 µM | 3.13 µM | 1.74 µM | 3.26 µM | 2.14 µM | 7.31 µM | 1.72 µM | 6.08 µM | 1.94 µM | 5.43 µM
6 | CCCCCCCCCCCC1CCCC(C)N1 (stereo not given) | 5.82 µM | > 41.9 µM and 104 µM | 2.59 µM | 8.78 µM and 65.7 µM | 12.5 µM | 26.1 µM | 6.67 µM | 31.8 µM and 90.2 µM | 8.12 µM | 23.6 µM and 102 µM | 4.53 µM | 18.2 µM and 128 µM | 8.15 µM | 21.4 µM and 93.7 µM | 1.96 µM | – | 1.45 µM | – | 12.2 µM | 26.3 µM and 119 µM
7 | COc1ccc(Cn2cc3c(c2-c2ccc(OC)cc2)CCc2cnoc2-3)cc1 | 0.451 µM | > 100 µM | 0.309 µM | 1.24 µM | 0.35 µM | 2.71 µM | 1.12 µM | > 100 µM | 0.547 µM | > 100 µM | 0.444 µM | > 100 µM | 0.343 µM | 4.71 µM | 0.349 µM | > 100 µM | 0.364 µM | > 100 µM | 0.523 µM | > 100 µM
8 | O=C(NCc1ccc(Cn2c(=O)sn(-c3ccccc3)c2=O)cc1)OCc1ccc2c(Br)cc(Br)c(O)c2n1 | 0.141 µM | 0.328 µM | 0.539 µM | 1.89 µM | 0.992 µM | 2.19 µM | 0.379 µM | 1.84 µM | 1.03 µM | 2.24 µM | 1.52 µM | 3 µM | 1.44 µM | 2.75 µM | 0.322 µM | > 100 µM | 0.351 µM | > 100 µM | 1.5 µM | 3.12 µM
9 | CCN(C(=O)c1cc(F)ccc1Oc1cncnc1N1CC2(CCN(CC3CCC(NS(=O)(=O)CC)CC3)CC2)C1)C(C)C (stereo not given) | > 100 µM | > 100 µM | > 100 µM | > 100 µM | > 100 µM | > 100 µM | > 100 µM | > 100 µM | > 100 µM | > 100 µM | > 100 µM | > 100 µM | > 100 µM | > 100 µM | > 100 µM | > 100 µM | > 100 µM | > 100 µM | > 100 µM | > 100 µM
10 | COc1ccc(/C(C#N)=C/c2ccc(OC)c(OC)c2)cc1 | – | > 100 µM | – | > 100 µM | – | > 100 µM | – | > 100 µM | – | > 100 µM | – | > 100 µM | – | > 100 µM | – | > 100 µM | – | > 100 µM | – | > 100 µM
11 | CCNC(=O)c1cc2c(-c3cc(C(C)(C)O)ccc3Oc3c(C)cc(F)cc3C)cn(C)c(=O)c2[nH]1 | 1.32 µM | 12.5 µM | 1.12 µM | 15 µM | 4.52 µM | 18.4 µM | 0.257 µM | 10.9 µM | 0.17 µM | 9.42 µM | 2.09 µM | 16.7 µM | 2.09 µM | 6.89 µM | 1.86 µM | > 100 µM | 2.21 µM | 23.9 µM | 2.26 µM | 16.4 µM
12 | COc1cc(OC)c(/C=C/c2cnc3ccccc3n2)c(OC)c1 | – | > 10 µM | – | > 10 µM | – | > 10 µM | – | > 10 µM | – | > 10 µM | – | > 10 µM | – | > 10 µM | – | > 10 µM | – | > 10 µM | – | > 10 µM
13 | N#Cc1c(N)nc(N2CCOCC2)c(C#N)c1-c1cccnc1 | 86.6 µM | > 100 µM | > 100 µM | > 100 µM | > 100 µM | > 100 µM | 24.8 µM | > 100 µM | 43.4 µM | > 100 µM | > 100 µM | > 100 µM | > 100 µM | > 100 µM | 71.7 µM | > 100 µM | 39.3 µM | > 100 µM | 83.8 µM | > 100 µM
14 | Nc1nc(-c2ccc(F)cc2)c(-c2ccc3ncccc3n2)s1 | > 25 µM | > 25 µM | 16.3 µM | > 25 µM | 14.1 µM | > 25 µM | 0.268 µM | 24.6 µM | > 23.2 µM | > 25 µM | > 24.1 µM | > 25 µM | 13.1 µM | > 25 µM | > 18.5 µM | > 25 µM | > 22.1 µM | > 25 µM | 11.2 µM | > 25 µM
15 | COc1ccc2c(c1)n([O-])c1ccccc1[n+]2=O | – | > 100 µM | – | > 100 µM | 29.3 µM and 12.2 µM | > 100 µM | – | > 100 µM | – | > 100 µM and 65 µM | – | > 100 µM | – | 98.5 µM and 39.8 µM | 42.6 µM and 15.6 µM | > 100 µM | – | > 100 µM | – | > 100 µM and 55.1 µM
16 | CC[C@@H](C(=O)[C@@H](C)[C@@H](O)[C@H](C)[C@@H]1O[C@@H]([C@@H](CC)C(=O)N(CC)CC)CC[C@@H]1C)C1O[C@]2(C=CC(=O)[C@]3(CC[C@@](C)([C@H]4CC[C@](O)(CC)[C@H](C)O4)O3)O2)[C@H](C)C[C@@H]1C (stereo not given in full) | 3.18 µM | 17.4 µM | 2.73 µM | 15.6 µM | 3.41 µM | 12.6 µM | 1.35 µM | 4.6 µM | 1.83 µM | 5.81 µM | 3.1 µM | 13.4 µM | 1.69 µM | 3.09 µM | 2.89 µM | > 100 µM | 3.01 µM | 14.4 µM | 2.75 µM | 18.6 µM
17 | O=C(NP(=O)(N1CC1)N1CC1)c1cc(I)ccc1I | – | > 100 µM | – | > 100 µM | – | > 100 µM | – | > 100 µM | – | 57.6 µM | – | > 100 µM | – | > 100 µM | – | > 100 µM | – | > 78.8 µM | – | > 100 µM
18 | O=C(O)c1cccc(N=Nc2c(S(=O)(=O)O)ccc3c2C(=O)c2ccccc2C3=O)c1O | – | > 100 µM | – | > 100 µM | – | > 100 µM | – | > 100 µM | – | > 100 µM | – | > 100 µM | – | > 100 µM | – | > 100 µM | – | > 100 µM | – | > 100 µM
19 | CCOC(=O)C(=Cc1ccc(Oc2ccccc2)cc1)C(=O)OCC | – | 5.93 µM | – | 11 µM | – | 27.5 µM | – | 16.2 µM | – | 3.26 µM | – | 9.25 µM | – | 3.9 µM | – | 5.27 µM | – | 6.75 µM | – | 29.4 µM
